Assay results published in ChEMBL document CHEMBL1287797, “Design and synthesis of harzialactone analogues: promising anticancer agents” (2010).

Legend:
Assay type in all cases: functional
HeLa [1] = experiment: Anticancer activity against human HeLa cells assessed as inhibition of cell growth at 5 ug/ml by MTT assay
HL-60 [2] = experiment: Anticancer activity against human HL60 cells assessed as inhibition of cell growth at 5 ug/ml by MTT assay
ZR-75-1 [3] = experiment: Anticancer activity against human ZR-75-1 cells assessed as inhibition of cell growth at 5 ug/ml by MTT assay
COLO 205 [4] = experiment: Anticancer activity against human COLO205 cells assessed as inhibition of cell growth at 5 ug/ml by MTT assay
[5] = Anticancer activity against mouse P388D1 cells assessed as inhibition of cell growth at 5 ug/ml by MTT assay
[6] = Anticancer activity against mouse P388D1 cells assessed as inhibition of cell growth at 10 ug/ml by MTT assay
HeLa [7] = experiment: Anticancer activity against human HeLa cells assessed as inhibition of cell growth at 20 ug/ml by MTT assay
HL-60 [8] = experiment: Anticancer activity against human HL60 cells assessed as inhibition of cell growth at 20 ug/ml by MTT assay
ZR-75-1 [9] = experiment: Anticancer activity against human ZR-75-1 cells assessed as inhibition of cell growth at 20 ug/ml by MTT assay
COLO 205 [10] = experiment: Anticancer activity against human COLO205 cells assessed as inhibition of cell growth at 20 ug/ml by MTT assay
[11] = Anticancer activity against mouse P388D1 cells assessed as inhibition of cell growth at 20 ug/ml by MTT assay
HeLa [12] = experiment: Anticancer activity against human HeLa cells assessed as inhibition of cell growth at 40 ug/ml by MTT assay
HL-60 [13] = experiment: Anticancer activity against human HL60 cells assessed as inhibition of cell growth at 40 ug/ml by MTT assay
ZR-75-1 [14] = experiment: Anticancer activity against human ZR-75-1 cells assessed as inhibition of cell growth at 40 ug/ml by MTT assay
COLO 205 [15] = experiment: Anticancer activity against human COLO205 cells assessed as inhibition of cell growth at 40 ug/ml by MTT assay
[16] = Anticancer activity against mouse P388D1 cells assessed as inhibition of cell growth at 40 ug/ml by MTT assay
HeLa [17] = experiment: Anticancer activity against human HeLa cells assessed as inhibition of cell growth at 60 ug/ml by MTT assay
HL-60 [18] = experiment: Anticancer activity against human HL60 cells assessed as inhibition of cell growth at 60 ug/ml by MTT assay
ZR-75-1 [19] = experiment: Anticancer activity against human ZR-75-1 cells assessed as inhibition of cell growth at 60 ug/ml by MTT assay
COLO 205 [20] = experiment: Anticancer activity against human COLO205 cells assessed as inhibition of cell growth at 60 ug/ml by MTT assay
[21] = Anticancer activity against mouse P388D1 cells assessed as inhibition of cell growth at 60 ug/ml by MTT assay
HeLa [22] = experiment: Anticancer activity against human HeLa cells assessed as inhibition of cell growth at 80 ug/ml by MTT assay
HL-60 [23] = experiment: Anticancer activity against human HL60 cells assessed as inhibition of cell growth at 80 ug/ml by MTT assay
ZR-75-1 [24] = experiment: Anticancer activity against human ZR-75-1 cells assessed as inhibition of cell growth at 80 ug/ml by MTT assay
COLO 205 [25] = experiment: Anticancer activity against human COLO205 cells assessed as inhibition of cell growth at 80 ug/ml by MTT assay
[26] = Anticancer activity against mouse P388D1 cells assessed as inhibition of cell growth at 80 ug/ml by MTT assay
HeLa [27] = experiment: Anticancer activity against human HeLa cells assessed as inhibition of cell growth at 100ug/ml by MTT assay
HL-60 [28] = experiment: Anticancer activity against human HL60 cells assessed as inhibition of cell growth at 100ug/ml by MTT assay
ZR-75-1 [29] = experiment: Anticancer activity against human ZR-75-1 cells assessed as inhibition of cell growth at 100ug/ml by MTT assay
COLO 205 [30] = experiment: Anticancer activity against human COLO205 cells assessed as inhibition of cell growth at 100ug/ml by MTT assay
[31] = Anticancer activity against mouse P388D1 cells assessed as inhibition of cell growth at 100ug/ml by MTT assay
COLO 205 [32] = experiment: Anticancer activity against human COLO205 cells assessed as inhibition of cell growth at 10 ug/ml by MTT assay
ZR-75-1 [33] = experiment: Anticancer activity against human ZR-75-1 cells assessed as inhibition of cell growth at 10 ug/ml by MTT assay
HL-60 [34] = experiment: Anticancer activity against human HL60 cells assessed as inhibition of cell growth at 10 ug/ml by MTT assay
HeLa [35] = experiment: Anticancer activity against human HeLa cells assessed as inhibition of cell growth at 10 ug/ml by MTT assay

Structure (SMILES) | inhibition at 5 µg/mL (HeLa [1]) [%] | inhibition at 5 µg/mL (HL-60 [2]) [%] | inhibition at 5 µg/mL (ZR-75-1 [3]) [%] | inhibition at 5 µg/mL (COLO 205 [4]) [%] | inhibition at 5 µg/mL [5] [%] | inhibition at 10 µg/mL [6] [%] | inhibition at 20 µg/mL (HeLa [7]) [%] | inhibition at 20 µg/mL (HL-60 [8]) [%] | inhibition at 20 µg/mL (ZR-75-1 [9]) [%] | inhibition at 20 µg/mL (COLO 205 [10]) [%] | inhibition at 20 µg/mL [11] [%] | inhibition at 40 µg/mL (HeLa [12]) [%] | inhibition at 40 µg/mL (HL-60 [13]) [%] | inhibition at 40 µg/mL (ZR-75-1 [14]) [%] | inhibition at 40 µg/mL (COLO 205 [15]) [%] | inhibition at 40 µg/mL [16] [%] | inhibition at 60 µg/mL (HeLa [17]) [%] | inhibition at 60 µg/mL (HL-60 [18]) [%] | inhibition at 60 µg/mL (ZR-75-1 [19]) [%] | inhibition at 60 µg/mL (COLO 205 [20]) [%] | other results
CO[C@@]12[C@H](COC(N)=O)C3=C(C(=O)C(C)=C(N)C3=O)N1C[C@@H]1N[C@@H]12 [MITOMYCIN] | 56.5 | 53.2 | 51.3 | 56.3 | 55.4 |  |  |  |  |  |  |  |  |  |  |  |  |  |  |  | 
O=C1O[C@@H](CCc2ccc(Br)cc2)C[C@H]1O | 52.3 | 20.6 | 20.9 | 23.1 | 10.5 | 25.9 | 54.4 | 24.5 | 35.2 | 29.4 | 31.5 | 57.5 | 39.4 | 36.6 | 40.9 | 34.6 | 60.6 | 32.6 | 37 | 43.3 | inhibition at 60 µg/mL [21]: 40.1%; inhibition at 80 µg/mL (HeLa [22]): 62.5%; inhibition at 80 µg/mL (HL-60 [23]): 47.7%; inhibition at 80 µg/mL (ZR-75-1 [24]): 38.3%; inhibition at 80 µg/mL (COLO 205 [25]): 72.2%; inhibition at 80 µg/mL [26]: 40.7%; inhibition at 100 µg/mL (HeLa [27]): 69.1%; inhibition at 100 µg/mL (HL-60 [28]): 52.9%; inhibition at 100 µg/mL (ZR-75-1 [29]): 42.3%; inhibition at 100 µg/mL (COLO 205 [30]): 75.8%; inhibition at 100 µg/mL [31]: 52.5%; inhibition at 10 µg/mL (COLO 205 [32]): 26.2%; inhibition at 10 µg/mL (ZR-75-1 [33]): 33%; inhibition at 10 µg/mL (HL-60 [34]): 22.6%; inhibition at 10 µg/mL (HeLa [35]): 52.5%
O=C1O[C@@H](CCc2ccccc2)C[C@H]1O | 23.4 | 28.4 | 29.5 | 9.18 | 27.8 | 31.5 | 31.3 | 36.8 | 36.1 | 22.8 | 35.2 | 34 | 38.7 | 37.4 | 25.4 | 37.6 | 39 | 40 | 37.9 | 36 | inhibition at 60 µg/mL [21]: 38.3%; inhibition at 80 µg/mL (HeLa [22]): 41%; inhibition at 80 µg/mL (HL-60 [23]): 43.2%; inhibition at 80 µg/mL (ZR-75-1 [24]): 43.6%; inhibition at 80 µg/mL (COLO 205 [25]): 65.3%; inhibition at 80 µg/mL [26]: 40%; inhibition at 100 µg/mL (HeLa [27]): 62.4%; inhibition at 100 µg/mL (HL-60 [28]): 49%; inhibition at 100 µg/mL (ZR-75-1 [29]): 50.7%; inhibition at 100 µg/mL (COLO 205 [30]): 69.3%; inhibition at 100 µg/mL [31]: 45.1%; inhibition at 10 µg/mL (COLO 205 [32]): 16.8%; inhibition at 10 µg/mL (ZR-75-1 [33]): 35.7%; inhibition at 10 µg/mL (HL-60 [34]): 31%; inhibition at 10 µg/mL (HeLa [35]): 31.3%
